Test results: EP0170180A1, “Substituted guanidinobenzoic-acid phenyl esters, process for their production and their use as pharmaceutical preparations” (SCHERING AKTIENGESELLSCHAFT, priority 1984, dated 1986)
Where a name gives a salt, the structure may show the parent alone.

Legend:
[1] = target: T1, Humanakrosin (Homo sapiens, UniProt P10323); assay: Acrosin (human) assay: inhibition of isolated human acrosin; type: biochemical; settings: Substrat: Benzoyl-L-arginyleth.-ester; read-out: I50
T1 construct: endogenous in cells; host or cells: intact human spermatozoa (Humansperma)
T1 sequence (P10323 20-421): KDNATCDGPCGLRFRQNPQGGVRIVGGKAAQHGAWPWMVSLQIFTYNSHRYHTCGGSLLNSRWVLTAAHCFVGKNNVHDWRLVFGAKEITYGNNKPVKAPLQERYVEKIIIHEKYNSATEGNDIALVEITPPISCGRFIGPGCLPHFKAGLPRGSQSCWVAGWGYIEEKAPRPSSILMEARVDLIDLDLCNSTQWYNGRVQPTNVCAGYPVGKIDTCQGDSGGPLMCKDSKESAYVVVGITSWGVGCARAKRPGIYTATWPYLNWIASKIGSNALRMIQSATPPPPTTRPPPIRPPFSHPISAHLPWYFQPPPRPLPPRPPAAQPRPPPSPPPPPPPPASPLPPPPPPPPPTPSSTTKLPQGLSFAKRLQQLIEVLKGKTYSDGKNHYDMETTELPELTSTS
Text: Dieser Test stellt das eigentliche Primärscreening dar. Er gibt einen Anhaltspunkt über die inhibitorische Effektivität einer Verbindung am Enzym (Humanakrosin) selbst, erlaubt aber noch keine Aussage über die biologische Effektivität (d.h. Hemmung von Akrosin im intakten Spermium sowie kontrazeptive Wirksamkeit) der untersuchten Verbindungen.
Das durch eine saure Extraktion aus Humansperma gewonnene Enzym Akrosin wird mit verschiedenen Konzentrationen des potentiellen Inhibitors inkubiert, und es wird diejenige Konzentration bestimmt, die zu einer 50 %igen Hemmung der Akrosinaktivität führt. Die […] Akrosin spaltet physiologischerweise bevorzugt Arginin- und Lysin-Gruppen. Deshalb wird für die in vitro-Untersuchung zur Aktivitätsbestimmung von Akrosin ein Benzoyl-Arginin-Äthylester als Substrat verwendet.

[2] = test system: Maussperma; assay: In vitro fertilisation (mouse); type: cell-based, Maus; settings: for % Fertilisation: after 24 h; for Anzahl 2-Zellen-Embryos: counted after 24 h
Text: Dieser Test erlaubt eine erste Überprüfung der kontrazeptiven Effektivität sowie eine Überprüfung des Wirkprinzips per se:
In einem Mediumtropfen nach Brinster, Whitten und Whittingham, der den Inhibitor enthält, werden zunächst die durch Superovulation gewonnenen Oocyten überführt. Anschließend wird ein Aliquot des unbehandelten Maussperma hinzupipettiert. Die Konzentrationen des Inhibitors werden so gewählt, daß keine Hemmung der Motilität vorliegt. 24 Stunden später wird die Anzahl der geteilten und nicht geteilten Oocyten und damit die Fertilitätsrate bestimmt.
Es wird also überprüft, ob der zu untersuchende Akrosininhibitor, appliziert in einem System, in dem es zum unmittelbaren Kontakt zwischen Oocyte und Spermium kommt, eine Fertilisation hemmen kann - ohne daß eine Hemmung der Motilität der Spermien vorliegt.

[3] = test system: Kaninchen; assay: In vivo fertilisation (rabbit) after artificial insemination of preincubated sperm; settings: sperm preincubated with 500 µg/ml, 36 h after insemination; for % geteilt: fertility rate; for geteilt: number of divided oocytes; for nicht geteilt: number of undivided oocytes
Text: Dieser Test ermöglicht Aussagen zur kontrazeptiven Effektivität unter in-vivo-Bedingungen:
Kaninchensperma, das mit Hilfe einer künstlichen Vagina gewonnen wird, wird mit dem zu untersuchenden Akrosininhibitor präinkubiert. Anschließend werden zur Induktion einer Superovulation mit PMS (pregnant mare serum) vorbehandelte Kaninchenweibchen mit dem vorbehandelten Sperma artifiziell inseminiert. Zur Auslösung der […] erhalten sie abschließend HCG (human chorionic gonadotropin).
36 Stunden später werden die Tiere getötet, die Ovidukte und Uteri entnommen und gespült, um die frühen Embryonen bzw. ungeteilten Oocyten zu gewinnen und anhand deren Anzahl die Fertilisationsrate zu bestimmen.

[4] = target: T1, Humanakrosin; assay: Gelatinolysis test: acrosin inhibition in intact human spermatozoa (halo formation, semiquantitative); type: cell-based; settings: Humansperma preincubated with inhibitor
Text: Dieser Test ist ebenfalls als Bestandteil des Primärscreenings anzusehen. Für die erwünschte kontrazeptive Wirkung eines Akrosininhibitors ist es - neben der eigentlichen Akrosinhemmung am isolierten Enzym - von essentieller Bedeutung, daß ein solcher Inhibitor in der Lage ist, das Plasmalemm und die äußere akrosomale Membran eines intakten Spermiums zu durchdringen, da Akrosin an der inneren akrosomalen Membran lokalisiert ist.
Als besonders geeignet für die Untersuchung dieser speziellen Fragestellung hat sich das Gelatinolyse-Modell nach P. Gaddum und R.Z. Blandau (Science 170: 749 - 751), modifiziert nach W.B. Schill (Int. J. Andrology 4: 25 - 38) und nach eigenen Ausarbeitungen erwiesen. Bei dieser Methode wird mit unbelichteten, fixierten und mit Methylenblau gefärbten Filmplatten für die Autoradiographie gearbeitet, deren Gelatineschicht durch die lytische Aktivität von Akrosin aufgelöst wird. Als Folge bilden sich um die Spermienköpfe gut sichtbare, weite Höfe (sog. Halo-Bildung/ Lysishof). Bei einer Hemmung von Akrosin unterbleibt die Ausbildung dieser Höfe.
Um die Penetrierfähigkeit eines erwiesenen Akrosininhibitors und damit die Hemmung von Akrosin am intakten Spermium zu untersuchen, wird Humansperma mit mehreren Konzentrationen des Inhibitors präinkubiert. […]

| SMILES | IC50 [1] [nM] | Gelatinolyse: Hemmung der Akrosinaktivität ([4]; 1 µg/ml) | Gelatinolyse: Hemmung der Akrosinaktivität ([4]; 10 µg/ml) | % Fertilisation ([2]; 5 ug/ml) [%] | Anzahl 2-Zellen-Embryos ([2]; 5 ug/ml) | % Fertilisation ([2]; 50 ug/ml) [%] | Anzahl 2-Zellen-Embryos ([2]; 50 ug/ml) | % geteilt [3] [%] | geteilt [3] | nicht geteilt [3] |
| --- | --- | --- | --- | --- | --- | --- | --- | --- | --- | --- |
| COC(=O)c1ccccc1OC(=O)c1ccc(NC(=N)N)cc1 [Verbindung 1, 4-Guanidinobenzoesäure-(2-methoxycarbonylphenyl)-ester Hydrochlorid, reference compound] | 733 | ++ bis +++ | + bis ++ | 78 | 195 | – | – | 51 | 88 | 83 |
| N=C(N)Nc1ccc(C(=O)Oc2cccc(C(N)=O)c2)cc1 [Verbindung 6, 4-Guanidinobenzoesäure-(3-carbamoylphenyl)-ester Hydrochlorid] | 320 | – | – | – | – | – | – | – | – | – |
| COC(=O)c1cccc(OC(=O)c2ccc(NC(=N)N)cc2)c1 [Verbindung 5, 4-Guanidinobenzoesäure-(3-methoxycarbonylphenyl)-ester Hydrochlorid] | 550 | – | – | – | – | – | – | – | – | – |

Now those with a lower IC50 [1], led by results:

| IC50 [1] [nM] | Gelatinolyse: Hemmung der Akrosinaktivität ([4]; 1 µg/ml) | Gelatinolyse: Hemmung der Akrosinaktivität ([4]; 10 µg/ml) | SMILES | % Fertilisation ([2]; 5 ug/ml) [%] | Anzahl 2-Zellen-Embryos ([2]; 5 ug/ml) | % Fertilisation ([2]; 50 ug/ml) [%] | Anzahl 2-Zellen-Embryos ([2]; 50 ug/ml) | % geteilt [3] [%] | geteilt [3] | nicht geteilt [3] |
| --- | --- | --- | --- | --- | --- | --- | --- | --- | --- | --- |
| 40 | – | – | N#Cc1ccccc1OC(=O)c1ccc(NC(=N)N)cc1 [Verbindung 2, 4-Guanidinobenzoesäure-(2-cyanophenyl)-ester Hydrochlorid] | 59 | 134 | 7 | 22 | 1 | 2 | 158 |
| 200 | – | – | CCOC(=O)c1cccc(OC(=O)c2ccc(NC(=N)N)cc2)c1 [Verbindung 3, 4-Guanidinobenzoesäure-(3-ethoxycarbonylphenyl)-ester Hydrochlorid] | – | – | – | – | 1 | – | – |
